Measurements as given in patent US12187727B2, “Methods for antagonizing a melanocortin 4 receptor” (Pfizer Inc., priority 2020, dated 2025).
Like-named read-outs stand apart in the source and are kept apart here.

Assays:
hMC4R = hMC4R (Homo sapiens (Human), UniProt P32245); experiment: In vitro binding affinity assay using hMC4R (radioligand competition binding, [125I]-(Nle4, D-Phe7)-α-MSH); details: geometric mean
Protocol: Example AA. In Vitro Binding Affinity Assay Using hMC4R
The binding affinity of test compounds at the […] (hMC4R) was assessed using a radioligand competition binding assay. […] Cell membranes were bulked and frozen until the assay was performed.
Compounds were solubilized in 100% dimethyl sulfoxide (DMSO) to a concentration of 30 mM. A 10-point intermediate dilution series using half log dilutions was created in 100% DMSO with a top concentration of 0.03 mM. […] The final compound range in the assay was 300 nM to 0.01 nM with a final DMSO concentration of 1%. […] The exact concentration of radioligand used for each experiment was determined by liquid scintillation counting and adjusted if necessary.
Frozen hMC4R cell membranes were thawed and Dounce homogenized. Homogenates were resuspended in assay buffer to a concentration of 2 μg per well. […] The plates were incubated for 2 hours at room temperature.
The raw data (expressed as counts per minute) were analyzed using ActivityBase (IDBS Data Management Software). […] Equilibrium dissociation constant for inhibitor of ligand and receptor interaction (Ki) values were then calculated from the IC50 values using the Cheng-Prusoff equation: Ki=IC50/(1+([L]/Kd)), where [L] is the concentration of the radioligand used in the experiment and Kd is the affinity of the radioligand (determined in separate saturation experiments).

[1] = target: human Melanocortin-4 receptor (MC4R) (Homo sapiens (Human), UniProt P32245); experiment: Functional in vitro MC4R antagonist potency assay (cAMP HTRF in CHO cells); format: cell-based; details: read-out: Kb (nM) Antagonist geometric mean
Procedure, shortened: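 CHO cells stably expressing human MC4R were preincubated 30 min at 37 °C with compound ([…], 0.1% DMSO), then stimulated 30 min with EC80 αMSH (200 nM). Intracellular cAMP quantified by HTRF competitive immunoassay and normalized to agonist-stimulated and vehicle-only wells.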

[2] = read-out: Ki (nM) geometric mean

human Melanocortin-4 receptor (MC4R), sequence (P32245 whole entry): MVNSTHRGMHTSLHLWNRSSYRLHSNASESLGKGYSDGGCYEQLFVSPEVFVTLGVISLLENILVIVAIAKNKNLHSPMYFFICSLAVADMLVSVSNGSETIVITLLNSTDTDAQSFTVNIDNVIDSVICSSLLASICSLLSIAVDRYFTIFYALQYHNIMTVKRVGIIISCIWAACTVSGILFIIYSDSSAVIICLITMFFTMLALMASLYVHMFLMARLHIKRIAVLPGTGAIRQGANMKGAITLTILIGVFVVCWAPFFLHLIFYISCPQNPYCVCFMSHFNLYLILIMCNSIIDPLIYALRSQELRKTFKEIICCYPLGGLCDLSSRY
hMC4R, sequence (P32245 whole entry): as above

Ki (hMC4R; [2]) [nM]	Kb [1] [nM]	Ki (hMC4R; read-out: Ki (nM) geometric) [nM]	SMILES
0.21	0.049	–	COc1cc([C@@H](C)C(=O)N2CCC3(CCc4cc(-c5nnn(C)n5)c(C)nc4N3)C2)c(Cl)cn1 (single isomer, unassigned) [Example 1]
4.5	1.2	–	COc1cc([C@@H](C)C(=O)N2CCC3(CCc4cc(-c5nnn(C)n5)c(C)nc4N3)C2)c(Cl)cn1 (single isomer, unassigned) [Example 2]
0.44	8.5	–	Cc1nc2c(cc1-c1ncccn1)CC[C@@]1(CCN(C(=O)C(C)c3ccc(OC(F)F)nc3)C1)N2 (single isomer, unassigned) [Example 6]
0.62	8.1	–	Cc1nc2c(cc1-c1ncccn1)CC[C@@]1(CCN(C(=O)C(C)c3ccc(C(F)(F)F)cc3)C1)N2 (single isomer, unassigned) [Example 7]
76	> 95	–	Cc1nc2c(cc1-c1ncccn1)CC[C@@]1(CCN(C(=O)C(C)c3ccc(C(F)(F)F)cc3)C1)N2 (single isomer, unassigned) [Example 8]
0.36	0.88	–	COc1cc([C@@H](C)C(=O)N2CCC3(CCc4cc(-c5cnn(C)c5)c(C)nc4N3)C2)c(F)cn1 (single isomer, unassigned) [Example 16]
69	> 64	–	COc1cc([C@@H](C)C(=O)N2CCC3(CCc4cc(-c5cnn(C)c5)c(C)nc4N3)C2)c(F)cn1 (single isomer, unassigned) [Example 17]
77	> 97	–	COc1cc([C@@H](C)C(=O)N2CC[C@@]3(CCc4ccc(C)nc4N3)C2)nc(C)n1 (single isomer, unassigned) [Example 24, 2-(6-methoxy-2-methylpyrimidin-4-yl)-1-(7-methyl-3,4-dihydro-1H-spiro[1,8-naphthyridine-2,3′-pyrrolidin]-1′-yl)propan-1-one]
220	> 97	–	COc1cc([C@@H](C)C(=O)N2CC[C@@]3(CCc4ccc(C)nc4N3)C2)nc(C)n1 (single isomer, unassigned) [Example 25, 2-(6-methoxy-2-methylpyrimidin-4-yl)-1-(7-methyl-3,4-dihydro-1H-spiro[1,8-naphthyridine-2,3′-pyrrolidin]-1′-yl)propan-1-one]
210	> 97	–	COc1cc([C@@H](C)C(=O)N2CC[C@@]3(CCc4ccc(C)nc4N3)C2)nc(C)n1 (single isomer, unassigned) [Example 26, 2-(6-methoxy-2-methylpyrimidin-4-yl)-1-(7-methyl-3,4-dihydro-1H-spiro[1,8-naphthyridine-2,3′-pyrrolidin]-1′-yl)propan-1-one]
> 200	–	–	Cc1nc2c(cc1-c1ncccn1)CC[C@@]1(CCN(C(=O)[C@H](C)c3cc(C(F)(F)F)ncc3Cl)C1)N2 (single isomer, unassigned) [Example 38]
43	–	–	COc1ccc([C@@H](C)C(=O)N2CC[C@@]3(CCc4cc(-c5ncccn5)c(C)nc4N3)C2)cc1F (single isomer, unassigned) [Example 43]
20	–	–	COc1cc([C@](C)(F)C(=O)N2CC[C@@]3(CCc4cc(-c5ncccn5)c(C)nc4N3)C2)ccn1 (single isomer, unassigned) [Example 47]
99	–	–	Cc1nc2c(cc1-c1ncccn1)CC[C@@]1(CCN(C(=O)[C@H](C)c3cc(OC(F)F)ncc3Cl)C1)N2 (single isomer, unassigned) [Example 59]
40	–	–	COc1cc(OC(F)F)cc([C@@H](C)C(=O)N2CC[C@@]3(CCc4cc(-c5ncccn5)c(C)nc4N3)C2)c1 (single isomer, unassigned) [Example 61]
180	–	–	Cc1nc2c(cc1-c1ncccn1)CC[C@@]1(CCN(C(=O)[C@H](C)c3cc(OC(F)(F)F)ncc3F)C1)N2 (single isomer, unassigned) [Example 75]

Ki (hMC4R; [2]) [nM]	Kb [1] [nM]	Ki (hMC4R; read-out: Ki (nM) geometric) [nM]	SMILES
84	–	–	Cc1nc2c(cc1-c1ncccn1)CC[C@@]1(CCN(C(=O)[C@H](C)c3cc(OC(F)F)ncc3F)C1)N2 (single isomer, unassigned) [Example 77]
> 250	–	–	Cc1nc2c(cc1-c1ncccn1)CC[C@@]1(CCN(C(=O)[C@H](C)c3cc(C(F)(F)F)ncc3F)C1)N2 (single isomer, unassigned) [Example 79]
120	–	–	Cc1nc2c(cc1-c1ncccn1)CC[C@@]1(CCN(C(=O)[C@H](C)c3cc(N(C)C)ncc3F)C1)N2 (single isomer, unassigned) [Example 82]
52	–	–	COc1cc([C@@H](C)C(=O)N2CC[C@@]3(CCc4cc(-c5ncccn5)c(C)nc4N3)C2)cc(OC)n1 (single isomer, unassigned) [Example 84]
> 250	–	–	COc1ncc(Cl)c([C@@H](C)C(=O)N2CC[C@@]3(CCc4cc(-c5ncccn5)c(C)nc4N3)C2)n1 (single isomer, unassigned) [Example 85]
2.3	–	–	COc1ncc(Cl)c([C@@H](C)C(=O)N2CC[C@@]3(CCc4cc(-c5ncccn5)c(C)nc4N3)C2)n1 (single isomer, unassigned) [Example 86]
17	–	–	COc1cc(OC)cc([C@@H](C)C(=O)N2CC[C@@]3(CCc4cc(-c5cnn(C)c5)c(C)nc4N3)C2)c1 (single isomer, unassigned) [Example 91]
100	–	–	COc1cc(OC)cc([C@@H](C)C(=O)N2CC[C@@]3(CCc4ccc(C)nc4N3)C2)c1 (single isomer, unassigned) [Example 97]
81	–	–	COc1cc([C@@H](C)C(=O)N2CC[C@@]3(CCc4ccc(C)nc4N3)C2)c(F)cn1 (single isomer, unassigned) [Example 99]
110	–	–	COc1cc([C@@H](C)C(=O)N2CC[C@@]3(CCc4ccc(C)nc4N3)C2)c(Cl)cn1 (single isomer, unassigned) [Example 101]
–	–	> 250	COc1cc([C@@H](C)C(=O)N2CC[C@@]3(CCc4cc(Cl)c(C)nc4N3)C2)c(F)cn1 (single isomer, unassigned) [Example 103]
–	–	29	Cc1nc2c(cc1-c1nnn(C)n1)CC[C@@]1(CCN(C(=O)[C@H](C)c3ccc(C(F)(F)F)cc3)C1)N2 (single isomer, unassigned) [Example 110]
–	–	140	COc1cc([C@@H](C)C(=O)N2CC[C@@]3(CCc4cc(-c5nnn(C)n5)c(C)nc4N3)C2)ccn1 (single isomer, unassigned) [Example 126]
–	–	63	COc1ncc(F)c([C@@H](C)C(=O)N2CC[C@@]3(CCc4cc(-c5nc6ccccn6n5)c(C)nc4N3)C2)n1 (single isomer, unassigned) [Example 133]
–	–	28	COc1cc([C@@H](C)C(=O)N2CC[C@@]3(CCc4cc(-c5ncccn5)c(C)nc4N3)C2)cc(OC(F)F)n1 (single isomer, unassigned) [Example 193]
–	–	5.5	COc1cc([C@@H](C)C(=O)N2CC[C@@]3(CCc4cc(-c5nc(N(C)C)cc(C(F)(F)F)n5)c(C)nc4N3)C2)c(F)cn1 [Example 185, (2R)-1-{(2S)-6-[4-(dimethylamino)-6-(trifluoromethyl)pyrimidin-2-yl]-7-methyl-3,4-dihydro-1H-spiro[1,8-naphthyridine-2,3′-pyrrolidin]-1′-yl}-2-(5-fluoro-2-methoxypyridin-4-yl)propan-1-one]

SMILES	Ki (hMC4R; [2]) [nM]	Kb [1] [nM]	Ki (hMC4R; read-out: Ki (nM) geometric) [nM]
Cc1nc2c(cc1-c1ncccn1)CC[C@@]1(CCN(C(=O)C(C)c3cc(OC(F)(F)F)ncc3Cl)C1)N2 (single isomer, unassigned) [Example 63]	94	–	–
